The IC50 is the concentration that inhibits the measured activity by half.

Bounds are passed on as bounds.

This test deals with Isocitrate dehydrogenase [NADP] cytoplasmic (Homo sapiens, UniProt O75874, R132H). Briefly: Inhibition Assay: Assays were conducted in a volume of 76 μl assay buffer (150 mM NaCl, 10 mM MgCl2, 20 mM Tris pH 7.5, 0.03% bovine serum albumin) as follows in a standard 384-well plate: To 25 ul of substrate mix (8 uM NADPH, 2 mM aKG), 1 μl of test compound was added in DMSO. […] The reaction was incubated for 50 minutes at room temperature, then 25 μl of detection mix (30 μM resazurin, […]) was added and the mixture further incubated for 5 minutes at room temperature. In general terms: Alamar Blue is a resazurin reagent that responds to reducing activity.
Sequence of Isocitrate dehydrogenase [NADP] cytoplasmic (O75874 2-414 R132H limits assumed): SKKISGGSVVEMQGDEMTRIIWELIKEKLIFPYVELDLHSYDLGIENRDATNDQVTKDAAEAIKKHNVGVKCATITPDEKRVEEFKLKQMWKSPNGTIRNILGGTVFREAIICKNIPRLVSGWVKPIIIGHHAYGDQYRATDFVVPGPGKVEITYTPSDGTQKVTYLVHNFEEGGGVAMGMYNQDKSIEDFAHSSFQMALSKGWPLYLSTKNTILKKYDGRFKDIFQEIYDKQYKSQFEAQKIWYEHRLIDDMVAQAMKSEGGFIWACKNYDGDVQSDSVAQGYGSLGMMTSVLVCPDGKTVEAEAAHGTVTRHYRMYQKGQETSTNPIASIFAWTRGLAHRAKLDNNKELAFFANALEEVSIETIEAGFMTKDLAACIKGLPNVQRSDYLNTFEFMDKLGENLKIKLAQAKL
In the case of `C=CC(=O)N1CCc2c(C3CC3)nc(N3CCN(C(=O)C4CC4)[C@H](C4CC4)C3)c(C#N)c2C1`, the IC50 was below 500 nM. The figure for `CC(C)c1nc(N2CCN(C(=O)Cc3cccs3)CC2)c(C#N)c2c1COC(C)(C)C2` is 1000 to 10000 nM. As for `CC(C)[C@@H]1CN(c2nc(C3CC3)c3c(c2C#N)CC(C)(C)OC3)CCN1C(=O)CCC(=O)OCCO`, the IC50 was below 500 nM. Turning to `C#CC(=O)N1CCc2c(C#N)c(N3CCN(C(=O)CCOC)[C@H](C4CC4)C3)nc(C3CC3)c2C1`, the concentration for half-maximal inhibition (IC50) was below 500 nM. The figure for `COCCC(=O)N1CCN(c2nc(C3CC3)c3c(c2C#N)CN(S(C)(=O)=O)CC3)C[C@H]1C1CC1` is below 500 nM.

Source of the values: ChEMBL document CHEMBL5726238, “Phenyl and pyridinyl substituted piperidines and piperazines as inhibitors of IDH1 mutants and their use in treating cancer” (2017).
